The experiment concerns the target T1, human glucagon receptor (Homo sapiens, UniProt P47871).
T1 construct: expressed in transfected cells; host or cells: BHK (baby hamster kidney) cells
Put plainly: Glucagon Binding Assay (III). The settings on record: BHK cell membranes, WGA SPA beads, 125I-glucagon; read-out: Glu Bd Assay (III) IC50. Summed up: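 Non-specific binding was set with 500 nM glucagon in this SPA-type binding assay using WGA beads. The receptor source was a membrane preparation, kept on ice or at 4 °C, from BHK cells transfected with the human receptor. Scintillation counts were taken after 4 hours of shaking and 8–48 hours of settling.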

31 compounds from patent publication US6875760B2 (Novo Nordisk A/S, priority 1999, dated 2005) can be followed below.

SMILES strings stand for the structures.

T1 sequence (P47871 26-477): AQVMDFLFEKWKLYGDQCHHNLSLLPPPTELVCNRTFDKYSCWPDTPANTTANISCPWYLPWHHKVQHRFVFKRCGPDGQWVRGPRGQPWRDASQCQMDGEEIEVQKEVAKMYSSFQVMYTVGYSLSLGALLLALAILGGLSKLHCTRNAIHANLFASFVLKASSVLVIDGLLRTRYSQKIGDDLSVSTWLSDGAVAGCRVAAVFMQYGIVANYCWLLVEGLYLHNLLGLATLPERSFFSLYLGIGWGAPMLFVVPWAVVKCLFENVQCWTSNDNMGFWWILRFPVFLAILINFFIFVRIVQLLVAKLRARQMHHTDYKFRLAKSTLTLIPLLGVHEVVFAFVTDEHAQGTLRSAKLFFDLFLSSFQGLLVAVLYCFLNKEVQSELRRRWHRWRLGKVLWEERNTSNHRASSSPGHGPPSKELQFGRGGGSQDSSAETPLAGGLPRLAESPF

As usually defined, the IC50 is the concentration that gives 50% inhibition. Take `O=C(O)CCNC(=O)c1ccc(CN(NC(=O)c2ccc(OC(F)(F)F)cc2)C2CCC3CCCCC3C2)cc1` (stereo not shown) [Example 427, 3-{4-[N-(Decahydronaphthalen-2-yl)-N′-(4-trifluoromethoxybenzoyl)hydrazinomethyl]benzoylamino}propionic acid]: the IC50 was determined as 512 nM.

Take `CC(C)(C)C1CCC(N(Cc2ccc(C(=O)NCCC(=O)O)cc2)NC(=O)c2cc(C(F)(F)F)cc(C(F)(F)F)c2)CC1` (stereo not shown) [Example 428, 3-{4-[N′-(3,5-Bis(trifluoromethyl)benzoyl)-N-(4-tert-butylcyclohexyl)hydrazinomethyl]benzoylamino}propionic acid]: the concentration for half-maximal inhibition (IC50) came to 410 nM. For `CC(C)(C)[C@H]1CC[C@H](N(Cc2ccc(C(=O)NCCC(=O)O)cc2)NC(=O)c2ccc(OC(F)(F)F)cc2)CC1` [Example 429, 3-{4-[N-(trans-4-tert-Butylcyclohexyl)-N′-(4-trifluoromethoxybenzoyl)hydrazinomethyl]benzoylamino}propionic acid], the IC50 is 86 nM. With `O=C(O)CCNC(=O)c1ccc(CN(C(=O)Nc2ccc(OC(F)(F)F)cc2)c2ccc(Br)cc2)cc1` [Example 430, 3-{4-[1-(4-Bromophenyl)-3-(4-trifluoromethoxyphenyl)ureidomethyl]benzoylamino}propionic acid], the IC50 worked out at 1680 nM.

As for `O=C(O)CCNC(=O)c1ccc(CN(Cc2ccccc2Cl)C(=O)Nc2ccc(OC(F)(F)F)cc2)cc1` [Example 431, 3-{4-[1-(2-Chlorobenzyl)-3-(4-trifluoromethoxyphenyl)ureidomethyl]benzoylamino}propionic acid], the IC50 worked out at 2910 nM. With `O=C(O)CCNC(=O)c1ccc(CN(Cc2ccc(Cl)c(Cl)c2)C(=O)Nc2ccc(OC(F)(F)F)cc2)cc1` [Example 432, 3-{4-[1-(3,4-Dichlorobenzyl)-3-(4-trifluoromethoxyphenyl)ureidomethyl]benzoylamino}propionic acid] the figure was 1800 nM. With `CC(C)c1ccc(CN(Cc2ccc(C(=O)NCCC(=O)O)cc2)C(=O)Nc2ccc(OC(F)(F)F)cc2)cc1` [Example 433, 3-{4-[1-(4-Isopropylbenzyl)-3-(4-trifluoromethoxyphenyl)ureidomethyl]benzoylamino}propionic acid] the figure was 1250 nM; with `O=C(O)CCNC(=O)c1ccc(CN(C(=O)Nc2ccc(OC(F)(F)F)cc2)c2ccc(N3CCCCC3)cc2)cc1` [Example 434, 3-{4-[1-(4-Piperidin-1-ylphenyl)-3-(4-trifluoromethoxyphenyl)ureidomethyl]benzoylamino}propionic acid], 126 nM. With `CCCCOc1ccc(N(Cc2ccc(C(=O)NCCC(=O)O)cc2)C(=O)Nc2ccc(OC(F)(F)F)cc2)cc1` [Example 435, 3-{4-[1-(4-Butoxyphenyl)-3-(4-trifluoromethoxyphenyl)ureidomethyl]benzoylamino}propionic acid] the figure was 374 nM.

Regarding `O=C(O)CCNC(=O)c1ccc(CN(C(=O)Nc2ccc(OC(F)(F)F)cc2)c2cnc3ccccc3c2)cc1` [Example 436, 3-{4-[1-Quinolin-3-yl-3-(4-trifluoromethoxyphenyl)ureidomethyl]benzoylamino}propionic acid], the IC50 came to 1990 nM. With `O=C(O)CCNC(=O)c1ccc(CN(C(=O)Nc2ccc(OC(F)(F)F)cc2)c2ccc(C(F)(F)F)cc2)cc1` [Example 437, 3-{4-[3-(4-Trifluoromethoxyphenyl)-1-(4-trifluoromethylphenyl)ureidomethyl]benzoylamino}propionic acid] the figure was 207 nM; with `O=C(O)CCNC(=O)c1ccc(CN(C(=O)Nc2ccc(OC(F)(F)F)cc2)c2ccc(OC(F)(F)F)cc2)cc1` [Example 438, 3-{4-[1,3-Bis(4-trifluoromethoxyphenyl)ureidomethyl]benzoylamino}propionic acid], 288 nM; with `CCCc1ccc(N(Cc2ccc(C(=O)NCCC(=O)O)cc2)C(=O)Nc2ccc(OC(F)(F)F)cc2)cc1` [Example 439, 3-{4-[1-(4-Propylphenyl)-3-(4-trifluoromethoxyphenyl)ureidomethyl]benzoylamino}propionic acid], 184 nM. Take `CCCCc1ccc(N(Cc2ccc(C(=O)NCCC(=O)O)cc2)C(=O)Nc2ccc(OC(F)(F)F)cc2)c(C)c1` [Example 440, 3-{4-[1-(4-Butyl-2-methylphenyl)-3-(4-trifluoromethoxyphenyl)ureidomethyl]benzoylamino}propionic acid]: the IC50 worked out at 509 nM. `CCOc1ccc(N(Cc2ccc(C(=O)NCCC(=O)O)cc2)C(=O)Nc2ccc(OC(F)(F)F)cc2)cc1` [Example 442, 3-{4-[1-(4-Ethoxyphenyl)-3-(4-trifluoromethoxyphenyl)ureidomethyl]benzoylamino}propionic acid]: the IC50 was 4100 nM. As for `O=C(O)CCNC(=O)c1ccc(CN(C(=O)Nc2cccc([N+](=O)[O-])c2)c2ccc(C3CCCCC3)cc2)cc1` [Example 443, 3-{4-[1-(4-Cyclohexylphenyl)-3-(3-nitrophenyl)ureidomethyl]benzoylamino}propionic acid], the IC50 stood at 167 nM. Then `CS(=O)(=O)c1cccc(NC(=O)N(Cc2ccc(C(=O)Nc3nn[nH]n3)cc2)c2ccc(C3CCCCC3)cc2)c1` [Example 444, 4-[1-(4-Cyclohexylphenyl)-3-(3-methylsulfonylphenyl)ureidomethyl]-N-(2H-tetrazol-5-yl)benzamide], with 42 nM; and `CC(C)(C)C1CCC(N(Cc2ccc(C(=O)Nc3nn[nH]n3)cc2)C(=O)Nc2cccc(S(C)(=O)=O)c2)CC1` (stereo not shown) [Example 445, 4-[1-(4-tert-Butylcyclohexyl)-3-(3-methylsulfonylphenyl)ureidomethyl]-N-(2H-tetrazol-5-yl)benzamide], with 204 nM. With `CCC(C)c1ccc(N(Cc2ccc(C(=O)Nc3nn[nH]n3)cc2)C(=O)Nc2cccc(S(C)(=O)=O)c2)cc1` (stereo not shown) [Example 446, 4-[1-(4-sec-Butylphenyl)-3-(3-methylsulfonylphenyl)ureidomethyl]-N-(2H-tetrazol-5-yl)benzamide] the figure was 522 nM; with `CCCCc1ccc(N(Cc2ccc(C(=O)Nc3nn[nH]n3)cc2)C(=O)Nc2cccc(S(C)(=O)=O)c2)cc1` [Example 447, 4-[1-(4-Butylphenyl)-3-(3-methylsulfonylphenyl)ureidomethyl]-N-(2H-tetrazol-5-yl)benzamide], 327 nM; with `CCC(C)c1ccc(N(Cc2ccc(C(=O)Nc3nn[nH]n3)cc2)C(=O)Nc2ccc(S(C)(=O)=O)cc2)cc1` (stereo not shown) [Example 448, 4-[1-(4-sec-Butylphenyl)-3-(4-methylsulfonylphenyl)ureidomethyl]-N-(2H-tetrazol-5-yl)benzamide], 1480 nM. As for `CC(C)(C)c1ccc(N(Cc2ccc(C(=O)Nc3nn[nH]n3)cc2)C(=O)Nc2cccc(S(C)(=O)=O)c2)cc1` [Example 449, 4-[1-(4-tert-Butylphenyl)-3-(3-methylsulfonylphenyl)ureidomethyl]-N-(2H-tetrazol-5-yl)benzamide], the IC50 turned out to be 195 nM. With `CS(=O)(=O)c1cccc(NC(=O)N(Cc2ccc(C(=O)Nc3nn[nH]n3)cc2)c2ccc(OC(F)(F)F)cc2)c1` [Example 450, 4-[3-(3-Methylsulfonylphenyl)-1-(4-trifluoromethoxyphenyl)ureidomethyl]-N-(2H-tetrazol-5-yl)benzamide] the figure was 1790 nM; with `CS(=O)(=O)c1ccc(NC(=O)N(Cc2ccc(C(=O)Nc3nn[nH]n3)cc2)c2ccc(OC(F)(F)F)cc2)cc1` [Example 451, 4-[3-(4-Methylsulfonylphenyl)-1-(4-trifluoromethoxyphenyl)ureidomethyl]-N-(2H-tetrazol-5-yl)benzamide], 3450 nM. Consider `CCS(=O)(=O)c1cccc(NC(=O)N(Cc2ccc(C(=O)Nc3nn[nH]n3)cc2)c2ccc(OC(F)(F)F)cc2)c1` [Example 452, 4-[3-(3-Ethylsulfonylphenyl)-1-(4-trifluoromethoxyphenyl)ureidomethyl]-N-(2H-tetrazol-5-yl)benzamide], for which the IC50 is 1410 nM. As to `CCS(=O)(=O)c1cccc(NC(=O)N(Cc2ccc(C(=O)Nc3nn[nH]n3)cc2)c2ccc(C3CCCCC3)cc2)c1` [Example 453, 4-[1-(4-Cyclohexylphenyl)-3-(3-ethylsulfonylphenyl)ureidomethyl]-N-(2H-tetrazol-5-yl)benzamide], the IC50 worked out at 72 nM. Regarding `CCS(=O)(=O)c1cccc(NC(=O)N(Cc2ccc(C(=O)Nc3nn[nH]n3)cc2)c2ccc(C(C)(C)C)cc2)c1` [Example 454, 4-[1-(4-tert-Butylphenyl)-3-(3-ethylsulfonylphenyl)ureidomethyl]-N-(2H-tetrazol-5-yl)benzamide], the IC50 was 214 nM. For `O=C(Nc1nn[nH]n1)c1ccc(CN(C(=O)Nc2ccc(S(=O)(=O)C(F)(F)F)cc2)c2ccc(C3CCCCC3)cc2)cc1` [Example 455, 4-[1-(4-Cyclohexylphenyl)-3-(4-trifluoromethylsulfonylphenyl)ureidomethyl]-N-(2H-tetrazol-5-yl)benzamide], the IC50 amounted to 53 nM. With `CC(C)(C)c1ccc(N(Cc2ccc(C(=O)Nc3nn[nH]n3)cc2)C(=O)Nc2cccc(C(=O)O)c2)cc1` [Example 456, 3-{3-(4-tert-Butylphenyl)-3-[4-(2H-tetrazol-5-ylcarbamoyl)benzyl]ureido}benzoic acid] the figure was 2810 nM; with `CC(C)(C)c1ccc(N(Cc2ccc(C(=O)Nc3nn[nH]n3)cc2)C(=O)Nc2cccc(C(=O)Oc3c(F)c(F)c(F)c(F)c3F)c2)cc1` [Example 457, 3-{3-(4-tert-Butylphenyl)-3-[4-(2H-tetrazol-5-ylcarbamoyl)benzyl]ureido}benzoic acid pentafluorophenyl ester], 841 nM. Then `CNC(=O)c1cccc(NC(=O)N(Cc2ccc(C(=O)Nc3nn[nH]n3)cc2)c2ccc(C(C)(C)C)cc2)c1` [Example 458, N-Methyl-3-{3-(4-tert-butylphenyl)-3-[4-(2H-tetrazol-5-ylcarbamoyl)benzyl]ureido}benzamide], with 1810 nM.
